# Test results taken from patent US20250263370A1 (Tay Therapeutics Limited, priority 2022, published 2025).
# “And” between values parts separate entries of the source, which are not always exact repeats. Equal entries are not always repeated. “Also recorded” adds a separate entry of the source. Where two headings read alike, the source gives them in different places. Marks after values point to notes of the source that are not given here.
# Legend:
# [1] = system: rat anti-collagen IgG1 antibodies; assay: Rat anti-collagen IgG1 antibodies in serum of CIA rats at day 21; format: in vivo, Lewis rat; details: for Average rat anti-collagen IgG1 levels, Mean: day 21, group mean; for Final Rat Anti-Collagen IgG1 Antibody Con. / Rat Anti-Collagen IgG1 Antibody Con.: day 21, per animal; for Rat Anti-Collagen IgG1 Antibody Con.: before multiplying by Fold 1000; for levels of rat anti-collagen IgG1 antibodies relative to CIA induced, no treatment: day 21
# Description: Blood was additionally collected from groups 1-7 via cardiac puncture following euthanasia on Day 21. […] Serum was divided into two separate tubes and stored at −75±15° C. One tube was used to analyze IgG1, and the other tube was reserved for additional analyses.
# [2] = system: collagen-induced arthritis; assay: Histopathologic analysis of H&E-stained hind limbs of CIA rats; format: in vivo, Lewis rat; details: for Number of animals: Erosion/Ulcer, cartilaginous, Marked / Number of animals: Erosion/Ulcer, cartilaginous, Mild / Number of animals: Erosion/Ulcer, cartilaginous, Minimal / Number of animals: Erosion/Ulcer, cartilaginous, Moderate / Number of animals: Granulation tissue, Marked / Number of animals: Granulation tissue, Mild / Number of animals: Granulation tissue, Minimal / Number of animals: Granulation tissue, Moderate / Number of animals: Increased bone, periosteum, Marked / Number of animals: Increased bone, periosteum, Mild / Number of animals: Increased bone, periosteum, Minimal / Number of animals: Increased bone, periosteum, Moderate / Number of animals: Increased eroded surface, bone, Marked / Number of animals: Increased eroded surface, bone, Mild / Number of animals: Increased eroded surface, bone, Minimal / Number of animals: Increased eroded surface, bone, Moderate / Number of animals: Mixed cell inflammation, Marked / Number of animals: Mixed cell inflammation, Mild / Number of animals: Mixed cell inflammation, Minimal / Number of animals: Mixed cell inflammation, Moderate / Number of animals: No Visible Lesions: hind limbs, CIA induced, 8 animals examined
# Excerpt: Hind limbs were collected following euthanasia, with the left limb being used for H&E staining.
# H&E-stained slides of designated tissues from animals were transferred to an independent pathologist for microscopic evaluation (SPFBio). Samples were assigned the histologic grades based on the severity of change from tissue where CIA was not induced. Histology grades assigned were as follows: grade 1 (minimal change), grade 2 (mild change), grade 3 (moderate change), grade 4 (marked change), and grade 5 (severe change).
# Moderate inflammation was also associated with increased edema fluid, fibrin, and cellular debris. Marked mixed cell inflammation was characterized by dense, widespread accumulations of neutrophils and macrophages with lesser number of lymphocytes within one or more joint spaces, synovium and periarticular soft tissues. Marked inflammation was also associated with abundant edema fluid, fibrin, and cellular debris.
# Marked granulation tissue (pannus) was associated with inflammation and was characterized by widespread fibrovascular connective tissue that expanded/replaced the periarticular soft tissues of one or more joints, extended into/expanded joint spaces, was contiguous with areas of erosion/ulcer in articular cartilage and/or increased eroded surface of bone, and variably extended along the diaphysis.
# Instances of minimal increased eroded surface were not associated with fragments of bone contiguous and/or surrounded by granulation tissue. […] In some areas, increased eroded surfaces were contiguous with areas of erosion/ulcer in the articular cartilages. Instance of marked increased eroded surface were often associated with fragments of bone contiguous with and/or surrounded by granulation tissue.
# This observation was typically most pronounced at joint margins (transition zone). The ulceration was often associated with inflammation and granulation tissue extending through the defect to the subchondral bone.
# Marked increased periosteal bone (periosteal bone formation) was characterized by extensive areas of increased bone matrix and numerous prominent osteoblasts lining trabecular surfaces along the metaphysis and/or diaphysis of one or more bones. In some areas, increased periosteal bone was contiguous with increased eroded surface and/or erosion/ulcer at articular cartilage.
# [3] = system: collagen-induced arthritis; details: rat, in vivo
# [4] = CIA rats, 3 mg/kg (group 5), hind limb H&E
# [5] = CIA rats, 10 mg/kg (group 6), hind limb H&E
# [6] = CIA rats, 30 mg/kg (group 7), hind limb H&E
smiles,measurement,setting,value
"CNC(=O)c1[nH]c(C(=O)NC2CCC2)cc1O[C@@H](C)c1ccccc1 (stereo in doubt) [Example 101, N^5-cyclobutyl-N^2-methyl-3-(1-phenylethoxy)-1H-pyrrole-2,5-dicarboxamide]","Average rat anti-collagen IgG1 levels, Mean","[1]; Group 5 (CIA), 3 mg/kg",7247.32*
same,Final Rat Anti-Collagen IgG1 Antibody Con.,"[1]; Group 5 (CIA), 3 mg/kg",7202.91 units/ml and 5737.56 units/ml and 596.39 units/ml and 17040.09 units/ml and 6834.32 units/ml and 2359.32 units/ml and 1570.97 units/ml and 16636.97 units/ml
same,"Average rat anti-collagen IgG1 levels, Mean","[1]; Group 6 (CIA), 10 mg/kg",10839.90
same,Final Rat Anti-Collagen IgG1 Antibody Con.,"[1]; Group 6 (CIA), 10 mg/kg",44339.86 units/ml and 9577.48 units/ml and 15070.08 units/ml and 545.06 units/ml and 12072.29 units/ml and 3772.28 units/ml and 782.47 units/ml and 559.69 units/ml
same,"Average rat anti-collagen IgG1 levels, Mean","[1]; Group 7 (CIA), 30 mg/kg",1447.13**
same,Final Rat Anti-Collagen IgG1 Antibody Con.,"[1]; Group 7 (CIA), 30 mg/kg",219.33 units/ml and 81.22 units/ml and 1208.05 units/ml and 4311.36 units/ml and 1799.62 units/ml and 548.72 units/ml and 1961.63 units/ml
same,Rat Anti-Collagen IgG1 Antibody Con.,"[1]; Group 5 (CIA), 3 mg/kg",7.20 units/ml and 5.74 units/ml and 0.60 units/ml and 17.04 units/ml and 6.83 units/ml and 2.36 units/ml and 1.57 units/ml and 16.64 units/ml
same,Rat Anti-Collagen IgG1 Antibody Con.,"[1]; Group 6 (CIA), 10 mg/kg",44.34 units/ml and 9.58 units/ml and 15.07 units/ml and 0.55 units/ml and 12.07 units/ml and 3.77 units/ml and 0.78 units/ml and 0.56 units/ml
same,Rat Anti-Collagen IgG1 Antibody Con.,"[1]; Group 7 (CIA), 30 mg/kg",0.22 units/ml and 0.08 units/ml and 1.21 units/ml and 4.31 units/ml and 1.80 units/ml and 0.55 units/ml and 1.96 units/ml
same,"levels of rat anti-collagen IgG1 antibodies relative to CIA induced, no treatment","[1]; 1 mg/kg, 10 mg/kg as printed, p<0.05",significantly decreased levels
same,"levels of rat anti-collagen IgG1 antibodies relative to CIA induced, no treatment","[1]; 30 mg/kg, p<0.01",significantly decreased levels
same,"Number of animals: Erosion/Ulcer, cartilaginous, Marked",[2]; 3 mg/kg,0
same,"Number of animals: Erosion/Ulcer, cartilaginous, Mild",[2]; 3 mg/kg,2
same,"Number of animals: Erosion/Ulcer, cartilaginous, Minimal",[2]; 3 mg/kg,0
same,"Number of animals: Erosion/Ulcer, cartilaginous, Moderate",[2]; 3 mg/kg,6
same,"Number of animals: Granulation tissue, Marked",[2]; 3 mg/kg,0
same,"Number of animals: Granulation tissue, Mild",[2]; 3 mg/kg,1
same,"Number of animals: Granulation tissue, Minimal",[2]; 3 mg/kg,0
same,"Number of animals: Granulation tissue, Moderate",[2]; 3 mg/kg,7
same,"Number of animals: Increased bone, periosteum, Marked",[2]; 3 mg/kg,0
same,"Number of animals: Increased bone, periosteum, Mild",[2]; 3 mg/kg,7
same,"Number of animals: Increased bone, periosteum, Minimal",[2]; 3 mg/kg,0
same,"Number of animals: Increased bone, periosteum, Moderate",[2]; 3 mg/kg,1
same,"Number of animals: Increased eroded surface, bone, Marked",[2]; 3 mg/kg,0
same,"Number of animals: Increased eroded surface, bone, Mild",[2]; 3 mg/kg,5
same,"Number of animals: Increased eroded surface, bone, Minimal",[2]; 3 mg/kg,0
same,"Number of animals: Increased eroded surface, bone, Moderate",[2]; 3 mg/kg,3
same,"Number of animals: Mixed cell inflammation, Marked",[2]; 3 mg/kg,1
same,"Number of animals: Mixed cell inflammation, Mild",[2]; 3 mg/kg,0
same,"Number of animals: Mixed cell inflammation, Minimal",[2]; 3 mg/kg,0
same,"Number of animals: Mixed cell inflammation, Moderate",[2]; 3 mg/kg,7
same,Number of animals: No Visible Lesions,[2]; 3 mg/kg,0
same,"Number of animals: Erosion/Ulcer, cartilaginous, Marked",[2]; 10 mg/kg,0
same,"Number of animals: Erosion/Ulcer, cartilaginous, Mild",[2]; 10 mg/kg,3
same,"Number of animals: Erosion/Ulcer, cartilaginous, Minimal",[2]; 10 mg/kg,1
same,"Number of animals: Erosion/Ulcer, cartilaginous, Moderate",[2]; 10 mg/kg,3
same,"Number of animals: Granulation tissue, Marked",[2]; 10 mg/kg,0
same,"Number of animals: Granulation tissue, Mild",[2]; 10 mg/kg,3
same,"Number of animals: Granulation tissue, Minimal",[2]; 10 mg/kg,0
same,"Number of animals: Granulation tissue, Moderate",[2]; 10 mg/kg,3
same,"Number of animals: Increased bone, periosteum, Marked",[2]; 10 mg/kg,0
same,"Number of animals: Increased bone, periosteum, Mild",[2]; 10 mg/kg,4
same,"Number of animals: Increased bone, periosteum, Minimal",[2]; 10 mg/kg,1
same,"Number of animals: Increased bone, periosteum, Moderate",[2]; 10 mg/kg,2
same,"Number of animals: Increased eroded surface, bone, Marked",[2]; 10 mg/kg,0
same,"Number of animals: Increased eroded surface, bone, Mild",[2]; 10 mg/kg,2
same,"Number of animals: Increased eroded surface, bone, Minimal",[2]; 10 mg/kg,2
same,"Number of animals: Increased eroded surface, bone, Moderate",[2]; 10 mg/kg,3
same,"Number of animals: Mixed cell inflammation, Marked",[2]; 10 mg/kg,2
same,"Number of animals: Mixed cell inflammation, Mild",[2]; 10 mg/kg,2
same,"Number of animals: Mixed cell inflammation, Minimal",[2]; 10 mg/kg,1
same,"Number of animals: Mixed cell inflammation, Moderate",[2]; 10 mg/kg,3
same,Number of animals: No Visible Lesions,[2]; 10 mg/kg,0
same,"Number of animals: Erosion/Ulcer, cartilaginous, Marked",[2]; 30 mg/kg,0
same,"Number of animals: Erosion/Ulcer, cartilaginous, Mild",[2]; 30 mg/kg,4
same,"Number of animals: Erosion/Ulcer, cartilaginous, Minimal",[2]; 30 mg/kg,1
same,"Number of animals: Erosion/Ulcer, cartilaginous, Moderate",[2]; 30 mg/kg,0
same,"Number of animals: Granulation tissue, Marked",[2]; 30 mg/kg,0
same,"Number of animals: Granulation tissue, Mild",[2]; 30 mg/kg,1
same,"Number of animals: Granulation tissue, Minimal",[2]; 30 mg/kg,2
same,"Number of animals: Granulation tissue, Moderate",[2]; 30 mg/kg,4
same,"Number of animals: Increased bone, periosteum, Marked",[2]; 30 mg/kg,0
same,"Number of animals: Increased bone, periosteum, Mild",[2]; 30 mg/kg,2
same,"Number of animals: Increased bone, periosteum, Minimal",[2]; 30 mg/kg,1
same,"Number of animals: Increased bone, periosteum, Moderate",[2]; 30 mg/kg,0
same,"Number of animals: Increased eroded surface, bone, Marked",[2]; 30 mg/kg,0
same,"Number of animals: Increased eroded surface, bone, Mild",[2]; 30 mg/kg,4
same,"Number of animals: Increased eroded surface, bone, Minimal",[2]; 30 mg/kg,0
same,"Number of animals: Increased eroded surface, bone, Moderate",[2]; 30 mg/kg,0
same,"Number of animals: Mixed cell inflammation, Marked",[2]; 30 mg/kg,0
same,"Number of animals: Mixed cell inflammation, Mild",[2]; 30 mg/kg,3
same,"Number of animals: Mixed cell inflammation, Minimal",[2]; 30 mg/kg,0
same,"Number of animals: Mixed cell inflammation, Moderate",[2]; 30 mg/kg,4
same,Number of animals: No Visible Lesions,[2]; 30 mg/kg,1
same,samples with pathologic observations,"[2]; CIA rats, 3 mg/kg (group 5)",All samples
same,erosion/ulcer in articular cartilage,[2]; [4],mild to moderate
same,granulation tissue (pannus),[2]; [4],mild and mild to moderate
same,increased eroded surface of bone (bone resorption),[2]; [4],mild to moderate
same,increased periosteal bone (periosteal bone formation),[2]; [4],mild to moderate
same,mixed cell inflammation,[2]; [4],moderate to marked
same,samples with pathologic observations,"[2]; CIA rats, 10 mg/kg (group 6)",All samples
same,erosion/ulcer in articular cartilage,[2]; [5],mild and moderate
same,granulation tissue (pannus),[2]; [5],mild and moderate
same,increased eroded surface of bone (bone resorption),[2]; [5],mild and moderate
same,increased periosteal bone (periosteal bone formation),[2]; [5],minimal; also recorded: moderate
same,mixed cell inflammation,[2]; [5],moderate
same,samples with no recorded pathological observations,"[2]; CIA rats, 30 mg/kg (group 7)",One out of eight
same,erosion in the articular cartilages,[2]; [6],mild
same,granulation tissue (pannus),[2]; [6],mild and moderate
same,increased eroded surface of bone (bone resorption),[2]; [6],mild
same,increased periosteal bone (periosteal bone formation),[2]; [6],mild
same,mixed cell inflammation,[2]; [6],mild and moderate
same,"pathologic observations after microscopic evaluation, overall","[2]; CIA rats, 3, 10 and 30 mg/kg (Groups 5-7)",at lower levels relative to samples from animals in the CIA-induced group (Group 2) in a dose-dependent manner
same,Clinical Observation,[3]; 10 mg/kg,Diarrhea
same,Clinical Observation,[3]; 30 mg/kg,Diarrhea
same,animals that gained weight by the end of the study,"[3]; po, 3 mg/kg",7/8
same,body weight over the course of the study,"[3]; po, 3 mg/kg","weight gain over the first 13 days of the study, similar to animals in groups 2 and 4, followed by weight loss over the remaining days"
same,diarrhea over the 21-day period,"[3]; po, 3 mg/kg",did not have diarrhea
same,"increase in body weight, day 21 compared to day 0","[3]; po, 3 mg/kg",1.7%
same,animals that either gained no weight or lost weight,"[3]; po, 10 mg/kg",5/8
same,animals that gained weight by the end of the study,"[3]; po, 10 mg/kg",3/8
same,animals that had diarrhea (for a single day) over the 21-day period,"[3]; po, 10 mg/kg",Two different animals
same,body weight over the course of the study,"[3]; po, 10 mg/kg","modest weight gains over the first 10-11 days of the study, followed by weight loss"
same,body weight relative to CIA + vehicle (group 2),"[3]; po, 10 mg/kg","significantly decreased relative to group 2 on days 6-7 and 10-18 (p<0.01), and on days 9 and 19-21 (p<0.05)"
same,"weight change, day 21 compared to day 0","[3]; po, 10 mg/kg",approximately 0.5%
same,animals that either lost weight or gained no weight,"[3]; po, 30 mg/kg",5/8
same,animals that gained weight by the end of the study,"[3]; po, 30 mg/kg",3/8
same,animals that had diarrhea over the 21-day period,"[3]; po, 30 mg/kg",Four different animals
same,body weight over the course of the study,"[3]; po, 30 mg/kg","modest weight gains over the first 10-11 days of the study, followed by weight loss"
same,body weight relative to CIA + vehicle (group 2),"[3]; po, 30 mg/kg","significantly decreased relative to group 2 on days 6-7 and 9-18 (p<0.01), and on days 5 and 19-21 (p<0.05)"
same,"weight change, day 21 compared to day 0","[3]; po, 30 mg/kg",approximately 0.5%
